≈ marks a conversion by molar mass, not a printed value. Calls of active or inactive are those of the source. The rule behind the calls is not given here.
How the values were obtained:
KMS-11 [1] = assay: Induction of primary alkylamine-tethering degradation of NSD2 in human KMS-11 cells at 1 to 4 uM by Western blot analysis; assay type: cell-based; conditions: dose 1-4 µM
[2] = biological target: T1, Histone-lysine N-methyltransferase NSD2 (Homo sapiens, UniProt O96028); assay: Binding affinity to CM5 chip-immobilizes NSD2 (unknown origin) assessed as dissociation constant by SPR analysis
T1 sequence (O96028 whole entry): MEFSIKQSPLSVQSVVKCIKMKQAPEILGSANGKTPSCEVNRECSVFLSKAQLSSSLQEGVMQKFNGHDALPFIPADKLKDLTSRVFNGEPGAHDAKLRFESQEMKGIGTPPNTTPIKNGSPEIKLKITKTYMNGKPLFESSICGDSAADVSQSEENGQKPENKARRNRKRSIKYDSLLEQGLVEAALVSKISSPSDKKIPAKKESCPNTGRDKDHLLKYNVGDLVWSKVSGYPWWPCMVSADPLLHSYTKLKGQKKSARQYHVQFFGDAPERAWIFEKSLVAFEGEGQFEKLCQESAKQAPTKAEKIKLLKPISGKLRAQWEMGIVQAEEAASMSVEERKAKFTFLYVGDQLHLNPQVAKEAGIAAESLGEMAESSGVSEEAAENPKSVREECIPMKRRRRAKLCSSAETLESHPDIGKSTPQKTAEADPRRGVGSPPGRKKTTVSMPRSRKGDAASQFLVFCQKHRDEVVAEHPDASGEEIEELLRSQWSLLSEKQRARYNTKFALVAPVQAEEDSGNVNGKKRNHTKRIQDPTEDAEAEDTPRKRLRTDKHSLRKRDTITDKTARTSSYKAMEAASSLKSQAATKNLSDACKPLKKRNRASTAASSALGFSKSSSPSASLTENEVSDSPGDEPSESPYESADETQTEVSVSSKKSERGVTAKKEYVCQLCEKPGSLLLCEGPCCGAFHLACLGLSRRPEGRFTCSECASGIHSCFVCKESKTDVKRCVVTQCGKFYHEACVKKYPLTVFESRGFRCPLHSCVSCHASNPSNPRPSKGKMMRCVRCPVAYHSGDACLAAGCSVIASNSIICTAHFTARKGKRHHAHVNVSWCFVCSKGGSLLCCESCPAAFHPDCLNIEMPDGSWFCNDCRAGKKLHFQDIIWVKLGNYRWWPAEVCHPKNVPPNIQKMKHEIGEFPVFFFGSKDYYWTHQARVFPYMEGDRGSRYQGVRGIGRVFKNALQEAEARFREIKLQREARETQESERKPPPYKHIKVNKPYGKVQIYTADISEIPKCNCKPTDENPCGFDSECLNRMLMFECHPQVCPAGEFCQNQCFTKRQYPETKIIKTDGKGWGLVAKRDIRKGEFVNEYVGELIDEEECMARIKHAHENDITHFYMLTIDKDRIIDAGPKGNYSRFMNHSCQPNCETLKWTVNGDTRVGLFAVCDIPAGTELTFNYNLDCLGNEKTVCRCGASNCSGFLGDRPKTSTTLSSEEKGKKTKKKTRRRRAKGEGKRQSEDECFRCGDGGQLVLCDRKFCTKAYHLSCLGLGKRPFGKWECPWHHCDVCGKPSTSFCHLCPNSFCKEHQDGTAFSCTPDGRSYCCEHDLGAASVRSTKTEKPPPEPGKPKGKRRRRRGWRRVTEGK

KMS-11 [3] = assay: Induction of primary alkylamine-tethering degradation of NSD2 in human KMS-11 cells at 0.1 to 2 uM by Western blot analysis; assay type: cell-based; conditions: dose 0.1-2 µM
[4] = (§1) Induction of primary alkylamine-tethering degradation of NSD2 Long isoform in human KMS-11 cells by Western blot analysis; assay type: cell-based
KMS-11 [5] = assay: as §1; assay type: cell-based; conditions: dose <= 5.0 µM
[6] = biological target: T2, Histone-lysine N-methyltransferase NSD2 (Homo sapiens) (UniProt O96028); assay: (§2) Induction of primary alkylamine-tethering degradation of NSD2 RE-IIBP isoform in human KMS-11 cells by Western blot analysis; assay type: cell-based; conditions: dose <= 5.0 µM
T2 sequence (whole entry): T1 sequence (O96028 whole entry)

[7] = biological target: T1, Histone-lysine N-methyltransferase NSD2; assay: as §2; assay type: cell-based
KMS-11 [8] = assay: Induction of primary alkylamine-tethering degradation of NSD2 Long isoform in human KMS-11 cells upto 5 uM by Western blot analysis; assay type: cell-based
[9] = biological target: T2, Histone-lysine N-methyltransferase NSD2 (Homo sapiens); assay: Induction of primary alkylamine-tethering degradation of NSD2 RE-IIBP isoform in human KMS-11 cells upto 5 uM by Western blot analysis; assay type: cell-based
KMS-11 [10] = assay: Induction of primary alkylamine-tethering degradation of NSD2 in human KMS-11 cells at 5 uM by Western blot analysis; assay type: cell-based; conditions: time 6-48 hrs
KMS-11 [11] = assay: Induction of primary alkylamine-tethering degradation of NSD2 Long isoform in human KMS-11 cells at 0.1 to 2 uM by Western blot analysis; assay type: cell-based; conditions: dose 0.1-2 µM
[12] = biological target: T2, Histone-lysine N-methyltransferase NSD2 (Homo sapiens); assay: Induction of primary alkylamine-tethering degradation of NSD2 RE-IIBP isoform in human KMS-11 cells at 0.1 to 2 uM by Western blot analysis; assay type: cell-based; conditions: dose 0.1-2 µM
KMS-11 [13] = assay: Induction of primary alkylamine-tethering degradation of NSD1 in human KMS-11 cells at 0.1 to 2 uM by Western blot analysis; assay type: cell-based; conditions: dose 0.1-2 µM
KMS-11 [14] = assay: Induction of primary alkylamine-tethering degradation of NSD3 in human KMS-11 cells at 0.1 to 2 uM by Western blot analysis; assay type: cell-based; conditions: dose 0.1-2 µM
KMS-11 [15] = assay: Induction of primary alkylamine-tethering degradation of NSD2 in human KMS-11 cells assessed as decrease in H3K36 methylation upto 2.5 uM by Western blot analysis; assay type: cell-based
22Rv1 = assay: Induction of primary alkylamine-tethering degradation of NSD2 in human 22Rv1 cells assessed as decrease in H3K36 methylation upto 8 uM by Western blot analysis; assay type: cell-based
KMS-11 [16] = assay: Antiproliferative activity against human KMS-11 cells assessed as inhibition of cell viability incubated for 8 to 12 days by Cell Titer Glo assay; assay type: functional, cell-based
[17] = Antiproliferative activity against HEK293T cells assessed as inhibition of cell viability incubated for 8 to 12 days by Cell Titer Glo assay; assay type: toxicity, cell-based, HEK-293T; conditions: human
KMS-11 [18] = assay: Induction of primary alkylamine-tethering degradation of NSD2 in human KMS-11 cells assessed as decrease in JAM2 mRNA level at 1.25 to 2.5 uM incubated for 2 days by qPCR analysis; assay type: cell-based; conditions: dose 1.25-2.5 µM, time 2.0 day
KMS-11 [19] = assay: Induction of primary alkylamine-tethering degradation of NSD2 in human KMS-11 cells assessed as decrease in MET mRNA level at 1.25 to 2.5 uM incubated for 2 days by qPCR analysis; assay type: cell-based; conditions: dose 1.25-2.5 µM, time 2.0 day
KMS-11 [20] = assay: Induction of primary alkylamine-tethering degradation of NSD2 in human KMS-11 cells assessed as decrease in PAK1 mRNA level at 1.25 to 2.5 uM incubated for 2 days by qPCR analysis; assay type: cell-based; conditions: dose 1.25-2.5 µM, time 2.0 day
KMS-11 [21] = assay: Induction of primary alkylamine-tethering degradation of NSD2 in human KMS-11 cells assessed as decrease in RRAS2 mRNA level at 1.25 to 2.5 uM incubated for 2 days by qPCR analysis; assay type: cell-based; conditions: dose 1.25-2.5 µM, time 2.0 day
KMS-11 [22] = assay: Induction of primary alkylamine-tethering degradation of NSD2 in human KMS-11 cells assessed as decrease in BACE2 mRNA level at 1.25 to 2.5 uM incubated for 2 days by qPCR analysis; assay type: cell-based; conditions: dose 1.25-2.5 µM, time 2.0 day
KMS-11 [23] = assay: Induction of primary alkylamine-tethering degradation of NSD2 in human KMS-11 cells assessed as decrease in CA2 mRNA level at 1.25 to 2.5 uM incubated for 2 days by qPCR analysis; assay type: cell-based; conditions: dose 1.25-2.5 µM, time 2.0 day
KMS-11 [24] = assay: Induction of primary alkylamine-tethering degradation of NSD2 in human KMS-11 cells assessed as decrease in IGF2BP2 mRNA level at 1.25 to 2.5 uM incubated for 2 days by qPCR analysis; assay type: cell-based; conditions: dose 1.25-2.5 µM, time 2.0 day
KMS-11 [25] = assay: Induction of primary alkylamine-tethering degradation of NSD2 in human KMS-11 cells assessed as decrease in CR2 mRNA level at 1.25 to 2.5 uM incubated for 2 days by qPCR analysis; assay type: cell-based; conditions: dose 1.25-2.5 µM, time 2.0 day
[26] = Solubility of compound in water measured after 4 hrs by HPLC analysis; assay type: physicochemical
[27] = Metabolic stability in human liver microsomes assessed as half life at 1 uM preincubated for 5 mins followed by NADPH addition measured for 5 to 60 mins by LC-MS/MS analysis; assay type: ADME, Microsome; conditions: time 10-65 min
[28] = Metabolic stability in human liver microsomes assessed as hepatic clearance at 1 uM preincubated for 5 mins followed by NADPH addition measured for 5 to 60 mins by LC-MS/MS analysis; assay type: ADME, Microsome; conditions: time 10-65 min
[29] = Metabolic stability in human liver microsomes assessed as hepatic extraction ratio at 1 uM preincubated for 5 mins followed by NADPH addition measured for 5 to 60 mins by LC-MS/MS analysis; assay type: ADME, Microsome; conditions: time 10-65 min, read-out: ERH
[30] = biological target: von Hippel-Lindau disease tumor suppressor/Histone-lysine N-methyltransferase NSD2 (Homo sapiens) (UniProt O96028+P40337); assay: PROTAC activity at VHL/NSD2 in human KMS-11 cells assessed as induction of protein degradation upto 50 uM by Western blot analysis; assay type: cell-based
Chain of von Hippel-Lindau disease tumor suppressor/Histone-lysine N-methyltransferase NSD2 (Homo sapiens) (P40337 whole entry, looked up, one chain of several): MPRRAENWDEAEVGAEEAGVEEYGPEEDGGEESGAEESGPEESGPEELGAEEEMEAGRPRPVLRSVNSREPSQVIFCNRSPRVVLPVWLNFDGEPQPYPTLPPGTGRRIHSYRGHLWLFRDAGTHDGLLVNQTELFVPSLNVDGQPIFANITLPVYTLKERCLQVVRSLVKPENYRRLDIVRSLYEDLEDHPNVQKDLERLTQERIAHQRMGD

## NCCCCCNC(=O)COc1cc(-c2cc(Cn3cnc4c(N)ncnc43)c(N3CCC[C@](N)(CC(F)F)C3)cn2)ccc1F
KMS-11 [1]
  Activity: inactive

## NCCCCCCNC(=O)COc1cc(-c2cc(Cn3cnc4c(N)ncnc43)c(N3CCC[C@](N)(CC(F)F)C3)cn2)ccc1F
KMS-11 [1]
  Activity: inactive

## NCCCNC(=O)COc1cc(-c2cc(Cn3cnc4c(N)ncnc43)c(N3CCC[C@](N)(CC(F)F)C3)cn2)ccc1F
KMS-11 [1]
  Activity: inactive

## NCCCCCCCCCCCCNC(=O)COc1cc(-c2cc(Cn3cnc4c(N)ncnc43)c(N3CCC[C@](N)(CC(F)F)C3)cn2)ccc1F
KMS-11 [1]
  Activity: inactive

## NCCCCCCCCCNC(=O)COc1cc(-c2cc(Cn3cnc4c(N)ncnc43)c(N3CCC[C@](N)(CC(F)F)C3)cn2)ccc1F
KMS-11 [1]
  Activity: inactive

## NCCCCCCCCCCCNC(=O)COc1cc(-c2cc(Cn3cnc4c(N)ncnc43)c(N3CCC[C@](N)(CC(F)F)C3)cn2)ccc1F
[2]
  Kd: 8.77 µM
KMS-11 [3]
  Activity: Active
[4]
  DC50: 1.48 µM
KMS-11 [5]
  Activity: Dose-dependent-effect
[6]
  Activity: Dose-dependent-effect
[7]
  DC50: 0.8 µM
KMS-11 [8]
  Activity: 80%
[9]
  Activity: 80%
KMS-11 [10]
  Activity: Time-dependent-effect
KMS-11 [11]
  Activity: Active
[12]
  Activity: Active
KMS-11 [13]
  Activity: Not active; Exhibited Moderate Degradation
KMS-11 [14]
  Activity: inactive
KMS-11 [15]
  Activity: Active
22Rv1
  Activity: Active
KMS-11 [16]
  IC50: 0.9 µM
[17]
  IC50: > 100 µM
KMS-11 [18]
  Activity: Active
KMS-11 [19]
  Activity: Active
KMS-11 [20]
  Activity: Active
KMS-11 [21]
  Activity: Active
KMS-11 [22]
  Activity: Active
KMS-11 [23]
  Activity: Active
KMS-11 [24]
  Activity: Active
KMS-11 [25]
  Activity: Active
[26]
  solubility at 4 h: 470 µg/mL (≈ 648 µM)
[27]
  half-life at 1 µM: 5.37 min
[28]
  CLhep predicted at 1 µM: 20.1 mL/min/kg
[29]
  hepatic extraction ratio at 1 µM: 0.973

## NCCCCCCCNC(=O)COc1cc(-c2cc(Cn3cnc4c(N)ncnc43)c(N3CCC[C@](N)(CC(F)F)C3)cn2)ccc1F
KMS-11 [1]
  Activity: inactive

## NCCCCCCCCCCCNC(=O)COc1cc(-c2cc(Cn3cnc4c(N)ncnc43)c(N3CCC[C@@](N)(CC(F)F)C3)cn2)ccc1F
[2]
  Kd: > 100 µM
KMS-11 [3]
  Activity: inactive

## NCCCCCCCCCCCNC(=O)COc1cc(-c2cc(Cn3cnc4c(N)ncnc43)c(N3CCCC(N)(CC(F)F)C3)cn2)ccc1F (racemic)
KMS-11 [1]
  Activity: Active

## Cc1ncsc1-c1ccc([C@H](C)NC(=O)[C@@H]2C[C@@H](O)CN2C(=O)[C@@H](NC(=O)CCCCCCCCCCCNC(=O)COc2cc(-c3cc(Cn4cnc5c(N)ncnc54)c(N4CCCC(N)(CC(F)F)C4)cn3)ccc2F)C(C)(C)C)cc1 (some centres not stated)
[30]
  Activity: Active

## Nc1ncnc2c1ncn2Cc1cc(-c2ccc(F)c(F)c2)ncc1N1CCC[C@](N)(CC(F)F)C1
KMS-11 [16]
  IC50: 4.7 µM
[17]
  IC50: 8.45 µM
[26]
  solubility at 4 h: 490 µg/mL (≈ 979 µM)
[27]
  half-life at 1 µM: 22.3 min
[28]
  CLhep predicted at 1 µM: 18.6 mL/min/kg
[29]
  hepatic extraction ratio at 1 µM: 0.898

## CNCCCCCCCCCCCNC(=O)COc1cc(-c2cc(Cn3cnc4c(N)ncnc43)c(N3CCC[C@](N)(CC(F)F)C3)cn2)ccc1F
KMS-11 [1]
  Activity: Not active; Exhibited Minimal Activity

## Nc1ncnc2c1ncn2Cc1cc(-c2ccc(F)c(OCC(=O)NCCCCCCCCCCCNC(=O)c3ccccc3)c2)ncc1N1CCC[C@](N)(CC(F)F)C1
KMS-11 [1]
  Activity: Not active; Exhibited Minimal Activity

Reference: ChEMBL document CHEMBL6074716, “Discovery of SET domain-binding primary alkylamine-tethered degraders for the simultaneous degradation of NSD2-long and RE-IIBP isoforms” (Eur J Med Chem, 2025)
